Data as given in patent US7910622B2, “Modulation of bacterial quorum sensing with synthetic ligands” (Wisconsin Alumni Research Foundation, priority 2007, dated 2011).
“Also recorded” adds a separate entry of the source. Read-outs that look alike come from different tables or passages of the source.

What was measured:
LasR [1] = biological target: T1, LasR (Pseudomonas aeruginosa, UniProt P25084); assay: cell-based; format: cell-based; conditions: for E. coli-LasR Inhibition [%]: 5 μM synthetic ligand against 7.5 nM OdDHL; for E. coli-LasR Inhibition [%] / inhibition at 5 µM: E. coli DH5α (pJN105L pSC11), normalized to OdDHL; for inhibition at 5 µM: read-out: E. coli-LasR Inhibition [%], 5 μM synthetic ligand against 7.5 nM OdDHL
T1 construct: expressed in transfected cells; host or cells: E. coli DH5α (pJN105L pSC11), arabinose-induced
Method in brief: (§1)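 E. coli DH5α carrying pJN105L/pSC11 grown to OD600 0.3, LasR expression induced with arabinose (4 mg/mL), then incubated with AHLs at 37 °C to OD600 0.45. LasR activity read by β-galactosidase reporter assay; IC50/EC50 from sigmoidal dose-response fits.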

LasR [2] = biological target: T1, LasR; assay: cell-based; conditions: for E. coli-LasR Activation [%]: 5 μM ligand; for E. coli-LasR Activation [%] / activation at 5 µM: E. coli DH5α (pJN105L pSC11), normalized to OdDHL; for activation at 5 µM: read-out: E. coli-LasR Activation [%], 5 μM ligand
Method in brief: as §1

elastase B production = assay: microbe, parasite or virus in culture; format: cell-based, Pseudomonas aeruginosa; conditions: for elastase B production inhibition: Example 2, concentration not stated (20 or 200 tested); for inhibition at 200 µM: Pseudomonas aeruginosa, PAO1, read-out: elastase B production inhibition
Method: Elastase B production assay in P. aeruginosa. Elastase B activity in P. aeruginosa was measured according to a previously reported method, with the following modifications. P. aeruginosa PAO1 was grown overnight in LB media at 37° C., after which it was diluted to an OD600=0.1. Portions (2 mL) of this culture was added to test tubes containing synthetic compounds to give final concentrations of 20 μM or 200 μM and incubated for 12-14 h at 37° C. with 200 rpm shaking. The OD600 was measured for each tube, after which the contents of the tubes were filtered through a […] Whatman filter to remove all cellular matter. A 100 μL-aliquot of the supernatant was added to 900 μL of an Elastin Congo Red Solution (5 mg of Elastin Congo red substrate per 1 mL of 100 mM Tris-HCl, 1 mM CaCl2 (pH 7.2)) and incubated for 12 h at 37° C. with 250 rpm shaking. The contents of these tubes were then filtered in order to remove unreacted Elastin Congo red substrate. Elastase B activity was then calculated (normalized) by dividing the absorbance of the cleaved Congo red (OD492) by the cell density (OD600 of the cells before first filtration).
Elastase B production assay in P. aeruginosa. Elastase B activity in P. aeruginosa was measured according to a previously reported method, with the following modifications. P. aeruginosa PAO1 was grown overnight at 37° C. and then diluted 1:10 with fresh LB medium. Portions (2 mL) of this culture were added to test tubes containing synthetic compounds to give final compound concentrations of 20 μM or 200 μM. The tubes were incubated for 12-14 h at 37° C. The OD600 was measured for each tube, after which the contents of the tubes were filtered through a 0.2 μm Whatman filter to remove all cellular matter. A 100 μL aliquot of the supernatant was added to 900 μL of an elastin-Congo red solution (5 mg of elastin-Congo red substrate per 1 mL of buffer (100 mM Tris-HCl, 1 mM CaCl2, pH 7.2)) and incubated for 12 h at 37° C. with 250 rpm shaking. The contents of these tubes were then filtered in order to remove unreacted elastin-Congo red substrate, and the supernatant containing cleaved Congo red was isolated. A 200 μL aliquot of the supernatant was added to a 96-well multititer plate, and the OD492 was measured. Elastase B activity was calculated by dividing the absorbance of the cleaved Congo red solution (OD492) by the cell density (OD600 of the cells before first filtration).

[3] = system: wild-type V. fischeri ES114; assay: Luminescence dose response in wild-type V. fischeri ES114; format: cell-based, Vibrio fischeri; conditions: relative to OHHL
Method: Vibrio fischeri assay procedures. For primary agonism assays, an appropriate amount of concentrated control or PHL (11) stock solution, to give a final concentration of 200 μM, was added to wells in a 96-well multititer plate. An overnight culture of V. fischeri ES114 (WT, Δ-luxI or Δ-luxR) was diluted 1:10 with LBS medium. A-200 μL portion of the diluted culture was added to each well of the plate. Plates were grown at RT with shaking (200 rpm) until the OD600=0.35-0.4 (4-6 h). Luminescence then was measured and normalized to cell density per well. […] Similar methods were used for dose response assays, except the concentrations of controls and PHLs 11 used were between 0.02 and 2×10^5 nM. All assays were performed in triplicate. IC50 and EC50 values were calculated using GraphPad Prism software using a sigmoidal curve fit.

QscR = biological target: T2, QscR (Pseudomonas aeruginosa, UniProt G3XD77); assay: QscR competitive antagonism reporter gene assay (β-gal) against DDHL in recombinant E. coli (pJN105Q); format: cell-based
T2 construct: expressed in transfected cells; host or cells: recombinant E. coli (pJN105Q) with β-gal promoter fusion
Method: The bacterial reporter strains used in this study were: E. coli pJN105L (P. aeruginosa, LasR), P. aeruginosa MW1 yfp (LasR), E. coli pJN105Q (P. aeruginosa, QscR), A. tumefaciens WCF (TraR), and V. fischeri ES114-luxI (LuxR).
We screened our AHL libraries for agonistic and antagonistic activity against QscR using a previously reported, recombinant E. coli strain that reports QscR activity via the production of β-galactosidase (β-gal) from a promoter fusion. […] All AHLs were examined at 5 μM concentrations.

[4] = biological target: QscR:DNA binding (PA1897 promoter) (Pseudomonas aeruginosa, UniProt G3XD77)
Description: We sought to obtain further insights into the mechanism of QscR modulation by non-native AHLs. […] We therefore performed electromobility shift assays (EMSA) on purified QscR and radiolabeled PA1897 promoter in the presence of selected QscR antagonists and 1.

[5] = determined against 7.5 nM OdDHL, read-out: LasR IC50

Chain of QscR:DNA binding (PA1897 promoter) (G3XD77 entry or part of it): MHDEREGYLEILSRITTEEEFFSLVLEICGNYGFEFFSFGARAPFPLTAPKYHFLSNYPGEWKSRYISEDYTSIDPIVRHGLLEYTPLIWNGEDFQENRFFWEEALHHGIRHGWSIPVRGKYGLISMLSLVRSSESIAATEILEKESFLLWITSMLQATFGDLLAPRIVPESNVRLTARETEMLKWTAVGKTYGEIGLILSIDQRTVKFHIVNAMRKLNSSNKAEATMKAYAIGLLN
T1 sequence (P25084 whole entry): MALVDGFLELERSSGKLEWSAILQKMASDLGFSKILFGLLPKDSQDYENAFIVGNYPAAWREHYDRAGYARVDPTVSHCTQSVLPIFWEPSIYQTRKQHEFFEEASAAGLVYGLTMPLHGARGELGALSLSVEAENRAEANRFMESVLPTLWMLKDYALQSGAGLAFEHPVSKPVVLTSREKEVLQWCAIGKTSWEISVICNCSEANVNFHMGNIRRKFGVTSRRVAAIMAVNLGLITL
T2 sequence (G3XD77 entry or part of it): as the sequence (G3XD77 entry or part of it) above

3-nitro PHL [B17] was tested, and the “LasR: concentration at which the compound elicits its maximal inhibition (value in parentheses)” value (LasR [1]; against 7.5 nM OdDHL, dose response curve did not reach 100% inhibition) was 2.0 µM, the IC50 (LasR [1]; [5]) was 0.61 µM and the “E. coli-LasR Activation [%]” value (LasR [2]) was 11%. For the same molecule, the “activation of elastase B production at high concentration” value (elastase B production; P. aeruginosa PAO1, 10-fold higher concentration (200 vs 20)) was “activate elastase B production; also recorded: capable of both inhibiting and activating elastase B production” and the “activity in wild-type V. fischeri” value [3] was “super-agonistic activity”.
`O=C(Cc1ccc(Br)cc1)N[C@H]1CCOC1=O` [A17, 4-bromo-phenylacetanoyl HL, reference compound] was tested, and the IC50 (LasR [1]) was 3.89 µM, the “E. coli-LasR Inhibition [%]” value (LasR [1]) was 28% and the activation at 5 µM (LasR [2]) was 0%. The “elastase B production inhibition” value (elastase B production; P. aeruginosa PAO1) was “ca. 76%”.
`O=C(Cc1ccc(Br)cc1)N[C@H]1CCOC1=O` [compound 8, N-(4-bromo-phenylacetanoyl)-L-homoserine lactone, reference compound] was tested, and the inhibition at 5 µM (LasR [1]) was ~25%, the IC50 (LasR [1]; read-out: LasR IC50, determined against 7.5 nM OdDHL) was 3.89 µM and the “E. coli-LasR Activation [%]” value (LasR [2]) was 0%. The inhibition at 200 µM (elastase B production) was 77%.
`O=C(CCCc1c[nH]c2ccccc12)N[C@H]1CCOC1=O` [A18, indole AHL, reference compound] was tested, and the “E. coli-LasR Inhibition [%]” value (LasR [1]) was 36%, the IC50 (LasR [1]; [5]) was 8.38 µM and the “E. coli-LasR Activation [%]” value (LasR [2]) was 3%. The “elastase B production inhibition” value (elastase B production; P. aeruginosa PAO1) was ~67%.
`O=C(Cc1ccc(-c2ccccc2)cc1)NC1CCOC1=O` (stereo not shown) [B21, 4-phenyl PHL] was tested, and the inhibition at 5 µM (LasR [1]) was 20%, the activation at 5 µM (LasR [2]) was 0% and the “elastase B production inhibition” value (elastase B production; P. aeruginosa PAO1) was “poorly antagonized elastase B production”.
`O=C(Cc1ccc(-c2ccccc2)cc1)N[C@H]1CCOC1=O` [C18, 4-phenyl PHL] was tested, and the IC50 (QscR) was 0.03 µM, the “inhibition of OdDHL-dependent QscR:DNA binding” value ([4]; 100:1 ratio with OdDHL) was 85% and the “reduction of QscR:DNA binding” value ([4]; 1000:1 ratio vs. OdDHL) was 100%. For the same molecule, the “inhibition of OdDHL-dependent QscR:DNA binding” value ([4]; EMSA) was “capable of inhibiting OdDHL (1)-dependent QscR:DNA binding”, the inhibition at 5 µM (LasR [1]) was 20% and the “Activation (%)” value (LasR [2]; E. coli-LasR, Library C primary agonism screen) was 0%. It also gave an activation at 5 µM (LasR [2]) of 0% and an inhibition at 200 µM (elastase B production) of 4%.
